For 20 compounds, Activity results are on record in ChEMBL document CHEMBL3228036, “A new chemical series active against African trypanosomes: benzyltriphenylphosphonium salts” (J Med Chem, 1979).

Data set [1] deals with Trypanosoma brucei rhodesiense. Kind of data set: […] activity against Trypanosoma brucei rhodesiense Wellcome CT infected in ICR/HA mouse assessed as curated mouse at 424 mg/kg, po treated within 2 hrs of parasite infection measured up to 30 days. The class given is functional, organism-based. Further details: dose 424 mg/kg.
Data set [2] deals with Trypanosoma brucei rhodesiense. Kind of data set: […] activity against Trypanosoma brucei rhodesiense Wellcome CT infected in ICR/HA mouse assessed as curated mouse at 26.5 mg/kg, po treated within 2 hrs of parasite infection measured up to 30 days. The class given is functional, organism-based. Also noted: dose 26.5 mg/kg.
Data set [3] relates to Trypanosoma brucei rhodesiense. Kind of data set: […] activity against Trypanosoma brucei rhodesiense Wellcome CT infected in ICR/HA mouse assessed as curated mouse at 53 mg/kg, po treated within 2 hrs of parasite infection measured up to 30 days. Also noted: dose 53 mg/kg. The class given is functional, organism-based.
For data set [4], the system named is Trypanosoma brucei rhodesiense. As to the kind of experiment: […] activity against Trypanosoma brucei rhodesiense Wellcome CT infected in ICR/HA mouse assessed as curated mouse at 106 mg/kg, sc treated within 2 hrs of parasite infection measured up to 30 days. Format: functional, organism-based. Further details: dose 106 mg/kg.
The subject of data set [5] is Trypanosoma brucei rhodesiense. As to the kind of experiment: […] activity against Trypanosoma brucei rhodesiense Wellcome CT infected in ICR/HA mouse assessed as curated mouse at 6.5 mg/kg, sc treated within 2 hrs of parasite infection measured up to 30 days. Format: functional, organism-based. Further details: dose 6.5 mg/kg.
Data set [6] concerns Trypanosoma brucei rhodesiense. Kind of data set: […] activity against Trypanosoma brucei rhodesiense Wellcome CT infected in ICR/HA mouse assessed as curated mouse at 212 mg/kg, po treated within 2 hrs of parasite infection measured up to 30 days. Format: functional, organism-based. Further details: dose 212 mg/kg.
For data set [7], the system named is Trypanosoma brucei rhodesiense. As to the kind of experiment: […] activity against Trypanosoma brucei rhodesiense Wellcome CT infected in ICR/HA mouse assessed as curated mouse at 53 mg/kg, sc treated within 2 hrs of parasite infection measured up to 30 days. The class given is functional, organism-based. Also noted: dose 53 mg/kg.
Data set [8] deals with Trypanosoma brucei rhodesiense. As to the kind of experiment: […] activity against Trypanosoma brucei rhodesiense Wellcome CT infected in ICR/HA mouse assessed as curated mouse at 13.3 mg/kg, sc treated within 2 hrs of parasite infection measured up to 30 days. Format: functional, organism-based. Also noted: dose 13.3 mg/kg.
The subject of data set [9] is Trypanosoma brucei rhodesiense. Kind of data set: […] activity against Trypanosoma brucei rhodesiense Wellcome CT infected in ICR/HA mouse assessed as curated mouse at 424 mg/kg, sc treated within 2 hrs of parasite infection measured up to 30 days. The class given is functional, organism-based. Further details: dose 424 mg/kg.
Data set [10] relates to Trypanosoma brucei rhodesiense. As to the kind of experiment: […] activity against Trypanosoma brucei rhodesiense Wellcome CT infected in ICR/HA mouse assessed as curated mouse at 212 mg/kg, sc treated within 2 hrs of parasite infection measured up to 30 days. Further details: dose 212 mg/kg. The class given is functional, organism-based.
Data set [11] concerns Trypanosoma brucei rhodesiense. As to the kind of experiment: […] activity against Trypanosoma brucei rhodesiense Wellcome CT infected in ICR/HA mouse assessed as curated mouse at 106 mg/kg, po treated within 2 hrs of parasite infection measured up to 30 days. Format: functional, organism-based. Further details: dose 106 mg/kg.
For data set [12], the system named is Trypanosoma brucei rhodesiense. As to the kind of experiment: […] activity against Trypanosoma brucei rhodesiense Wellcome CT infected in ICR/HA mouse assessed as curated mouse at 26.5 mg/kg, sc treated within 2 hrs of parasite infection measured up to 30 days. The class given is functional.
The test system of data set [13] is Trypanosoma brucei rhodesiense. As to the kind of experiment: […] activity against Trypanosoma brucei rhodesiense Wellcome CT infected in ICR/HA mouse assessed as curated mouse at 13.3 mg/kg, po treated within 2 hrs of parasite infection measured up to 30 days. Format: functional, organism-based. Also noted: dose 13.3 mg/kg.
Data set [14] has as its system Mus musculus. Kind of data set: Toxicity in Trypanosoma brucei rhodesiense Wellcome CT infected ICR/HA mouse assessed as mortality at 212 mg/kg, po treated within 2 hrs of parasite infection measured up to 30 days. Also noted: dose 212 mg/kg, route oral. The following applies: in vivo. Format: organism-based.
Data set [15] has as its system Mus musculus. Kind of data set: Toxicity in Trypanosoma brucei rhodesiense Wellcome CT infected ICR/HA mouse assessed as mortality at 424 mg/kg, sc treated within 2 hrs of parasite infection measured up to 30 days. The following applies: in vivo. Format: organism-based. Further details: dose 424 mg/kg, route subcutaneous.
Data set [16] deals with Mus musculus. As to the kind of experiment: Toxicity in Trypanosoma brucei rhodesiense Wellcome CT infected ICR/HA mouse assessed as mortality at 212 mg/kg, sc treated within 2 hrs of parasite infection measured up to 30 days. Format: organism-based. Also noted: dose 212 mg/kg, route subcutaneous. The following applies: in vivo.
Data set [17] relates to Mus musculus. As to the kind of experiment: Toxicity in Trypanosoma brucei rhodesiense Wellcome CT infected ICR/HA mouse assessed as mortality at 424 mg/kg, po treated within 2 hrs of parasite infection measured up to 30 days. Format: organism-based. Also noted: dose 424 mg/kg, route oral. The following applies: in vivo.

The source made the active and inactive calls. The rule behind the calls is not given here.

Regarding `Cc1ccc(C[P+](c2ccccc2)(c2ccccc2)c2ccccc2)cc1`, the outcome in [1], in data set [2], in data set [3], in data set [4], in [5] and in [6] was inactive. The outcome in data set [7], in data set [8], in data set [9], in data set [10], in data set [11] and in [12] was inactive. Besides, in data set [13], the outcome was inactive.
Regarding `Cc1ccccc1[P+](Cc1ccccc1)(c1ccccc1)c1ccccc1C.[Cl-]`, the result in [1], in [3], in data set [6], in data set [8], in data set [9] and in data set [10] was inactive. Moreover, the outcome in data set [13] was inactive. Moreover, the Activity result in the data set on Mus musculus [14], with Mus musculus [15] and in the data set on Mus musculus [16] was “Toxic” each time.
As to `Cc1ccc(C[P+](c2ccccc2)(c2ccccc2)c2ccccc2)cc1.[Br-]`, the Activity result in the data set with Mus musculus [14], in the data set on Mus musculus [15], with Mus musculus [16] and in the data set on Mus musculus [17] was “Toxic” in each case.
`N=C(N)c1ccc(/C=C/c2ccc(C(=N)N)cc2O)cc1` [HYDROXYSTILBAMIDINE]: in [12] (route subcutaneous), the Activity turned out to be 71%.
As to `Cc1ccccc1C[P+](c1ccccc1)(c1ccccc1)c1ccccc1.[Cl-]`, the Activity entry is “Toxic” in the data set on Mus musculus [15], 40% in data set [12] (route subcutaneous) and “Toxic” with Mus musculus [16].
`[Br-].c1ccc([P+](Cc2cccc3cccnc23)(c2ccccc2)c2ccccc2)cc1`: the result in data set [7], in data set [8], in [9] and in data set [12] was inactive. Besides, the Activity entry with Mus musculus [15] is “Toxic”.
In the case of `CCCCCCCCCCCC[P+](c1ccccc1)(c1ccccc1)c1ccccc1`, the result in data set [1], in data set [4], in data set [9], in data set [10] and in [12] was inactive.
`Clc1ccc(OC[P+](c2ccccc2)(c2ccccc2)c2ccccc2)cc1.[Cl-]`: the outcome in data set [1], in data set [8], in data set [9] and in data set [12] was inactive. In the data set on Mus musculus [15], the Activity result is on record as “Toxic”.
In the case of `CC(C)(C)c1cc(C[P+](c2ccccc2)(c2ccccc2)c2ccccc2)cc(C(C)(C)C)c1O.[Br-]`, the result in [1], in [2], in data set [3], in data set [4], in data set [6] and in data set [7] was inactive. Further, the outcome in data set [8], in [9], in data set [10], in data set [11], in [12] and in data set [13] was inactive. Further, in the data set on Mus musculus [14], the Activity result is “Toxic”.
With `[I-].c1ccc(CC(c2ccccc2)[P+](c2ccccc2)(c2ccccc2)c2ccccc2)cc1` (stereo not drawn), the outcome in [1], in data set [4], in data set [8], in [9] and in [12] was inactive. The Activity result in the data set on Mus musculus [15] was “Toxic”.
As for `CCOc1ccc(C[P+](c2ccccc2)(c2ccccc2)c2ccccc2)cc1.[Cl-]`, the outcome in [8], in data set [9], in data set [10] and in data set [12] was inactive. In addition, the Activity entry in the data set on Mus musculus [15] and in the data set with Mus musculus [16] was “Toxic” throughout.
Turning to `Cc1ccccc1C[P+](c1ccccc1)(c1ccccc1)c1ccccc1.[Br-]`, the Activity result in the data set with Mus musculus [15], in the data set with Mus musculus [16] and in the data set on Mus musculus [17] was “Toxic” each time.
Consider `C=CC[P+](c1ccccc1)(c1ccccc1)c1ccccc1.[Br-]`, for which the result in data set [1], in [8], in data set [9] and in [12] was inactive. Moreover, in the data set on Mus musculus [15], the Activity entry is given as “Toxic”.
As to `Cc1ccccc1[P+](Cc1ccccc1)(c1ccccc1C)c1ccccc1C.[Cl-]`, the result in data set [1], in [2], in data set [4], in [8], in [9] and in [11] was inactive. Also, the result in data set [12] and in data set [13] was inactive. In addition, the Activity entry in the data set with Mus musculus [15] and with Mus musculus [17] was “Toxic” each time.
As to `Cc1cccc([P+](Cc2ccccc2)(c2cccc(C)c2)c2cccc(C)c2)c1.[Cl-]`, the outcome in [2], in data set [3], in data set [4], in [8], in [9] and in data set [11] was inactive. In addition, the result in [13] was inactive. In addition, the Activity result in the data set on Mus musculus [15] was “Toxic”.
Regarding `[Br-].c1ccc([P+](c2ccccc2)(c2ccccc2)c2ccccc2)cc1` [TETRAPHENYLPHOSPHONIUM BROMIDE], the result in data set [1], in data set [4], in [9], in data set [10] and in data set [12] was inactive. The Activity result in the data set on Mus musculus [15] and with Mus musculus [16] was “Toxic” in each case.
Consider `Cc1ccc(C[P+](c2ccccc2)(c2ccccc2)c2ccccc2)cc1.[Cl-]`, for which the Activity entry with Mus musculus [15] is “Toxic”; in data set [12] (route subcutaneous), 20%.
With `Cc1ccccc1C[P+](c1ccccc1)(c1ccccc1)c1ccccc1`, the result in [1], in data set [2], in data set [3], in data set [4], in data set [6] and in data set [7] was inactive. The outcome in data set [8], in data set [9], in data set [10], in data set [11], in data set [12] and in data set [13] was inactive.
For the compound `COC(=O)c1ccccc1C[P+](c1ccccc1)(c1ccccc1)c1ccccc1`, the outcome in [8] and in data set [12] was inactive.
Consider `Clc1ccccc1C[P+](c1ccccc1)(c1ccccc1)c1ccccc1.[Cl-]`, for which the outcome in data set [1], in data set [2], in data set [3], in [6], in [8] and in data set [9] was inactive. The result in data set [10], in data set [11] and in data set [13] was inactive. The Activity entry in the data set on Mus musculus [14], in the data set on Mus musculus [15], with Mus musculus [16] and with Mus musculus [17] was “Toxic” in each case.
